# Measurements from patent US20250034264A1, “REGULATING T CELL IMMUNE RESPONSE THROUGH IGF-I RECEPTOR (IGF-1R)” (The Regents of the University of Michigan, priority 2021, published 2025).
# Assays:
# CD34+ fibrocytes = test: MHC II, CD80, CD86, PD-L1 expression in cultured fibrocytes (RT-qPCR, flow cytometry); type: cell-based, human
# From the text: Fibrocyte and T cell isolation and cultivation. Peripheral blood mononuclear cells (PBMCs) were obtained from the venous circulation of clinic patients with GD, TAO or from healthy donors after obtaining informed consent. PBMCs were also obtained from Red Cross donor plasmapheresis filters. They were isolated by Ficoll-Histopaque (Sigma-Aldrich, St. Louis, MO) density gradient centrifugation. Fibrocytes were cultivated as described (Bucala, R, et al., (1994) Mol Med 1, 71-81, incorporated herein by reference in its entirety) except that culture substrata remained uncoated with fibronectin, as previously described (Douglas, R. S., et al. (2010) The Journal of clinical endocrinology and metabolism 95, 430-438). Isolated PBMCs (1×10^6-1×107) were inoculated in six-well plates covered with DMEM containing 10% FBS and incubated in 10-14 days. Adherent monolayers (<5% of the starting population) were washed with PBS and detached using accutase (Millipore) treatment, or mechanical scraping following accutase treatment. Culture purity was routinely confirmed by FACS analysis to be >90% fibrocytes by confirming the CD31^−CD45^+CD34^+CXCR4^+Col I^+TSFR^high phenotype.
# Invariably, a small population of tightly adherent T cells were found in the fibrocyte cultures, consistent with the previous findings. Culture viability was routinely verified to be >90%. CD4^+ T cells were enriched using the CD4 isolation cocktail (Cat #0.130-096-533, Miltenyi Biotec, San Diego, CA) followed by negative selection using a magnetic column (Cat #0.130-042-401) according to manufacturer's protocol. Fibrocytes and isolated T cells were cultured and remained untreated or were incubated with human IgG isotype control (5 μg/ml) or teprotumumab (50 μg/mL) for 7 to 9 days. Single cell suspensions were stained with anti-human CD4, CD3, CD34, MHC-2, CD80, CD86, and PD-L1 (BD Biosciences) for 30 min, rinsed and fixed with CytoPerm/CytoFix (BD). They were then stained with anti-human INFγ and IL-17A for 20 min, rinsed, and subjected to the flow cytometry analysis. Gated CD34^+CXCR4^+ fibrocytes and CD4^+CD3^+ T cells were analyzed using quadrant settings based on negative isotype staining.
# In vitro studies of CD34^+ fibrocytes and T cells PBMC and GD-OF monolayers were treated in vitro with human IgG isotype control (5 μg/ml), teprotumumab (50 μg/mL), H7 (5 μg/mL), linsitinib (1 μM), bTSH (5 mIU/mL), M22 (1 μg/mL), or IGF-1 (10 nM) for the intervals indicted in the figure legends in a 37° C., 5% CO2, humidified incubator until confluent. Brefeldin A (0.66 μl/ml), (Golgi Stop™, BD Biosciences), phorbol 12-myristate 13-acetate (PMA) (50 ng/ml) and ionomycin (1 μg/mL) were added for 5 h. Cells were rinsed with flow cytometry buffer (1×PBS, 0.5% BSA, 0.1% sodium azide) and stained with the relevant monoclonal antibodies.
# Real-time PCR Confluent fibrocyte and GD-OF cultures were incubated with bTSH (5 mIU/mL), teprotumumab (50 μg/mL) or linsitinib (1 μM) for the time intervals indicated, washed with PBS and RNA was extracted with the Aurum Total RNA Mini Kit (cat. #732-6820, Bio-Rad, Hercules, CA). Cellular RNA (2 μg) was reverse transcribed using QuantiTect Reverse Transcription kit (cat. #205314, Qiagen (Germantown, MD) and real-time PCR was performed using an Applied Biosystems instrument with QuantiTect SYBR Green PCR kit (cat. no. 204143; Qiagen, Frederick, MD). Primer sequences were as follows.
# fibrocytes and GD-OF = test: BAFF expression and induction by bTSH; type: cell-based, human; conditions: teprotumumab 50 μg/ml or rhSlit2 50 ng/ml
# Method: FIGS. 12A-12F are graphs showing the effect of bTSH, teprotumumab, and Slit2 on B-cell activating factor (BAFF) expression in fibrocytes and GD-OF. In FIGS. 12A and 12B, cultures were treated for the graded intervals indicated along the abscissas with bTSH (5 mIU/mL). Cellular RNA was harvested and subjected to reverse transcription by RT-PCR (FIG. 12A). Values were normalized to their respective GAPDH levels Medium was assayed for BAFF levels with an ELISA (FIG. 12B). Values were normalized to respective monolayer protein content. Data are expressed as mean f SD of triplicate determinations; *, p<0.05; **, p<0.01; ***, p<0.001. In FIGS. 12C-12F, bTSH, teprotumumab (50 μg/ml) or recombinant human Slit2 (rhSlit2) (50 ng/ml) were added to culture media for the times indicated and analyzed for BAFF mRNA levels as in FIG. 12A. In FIGS. 12F, parental GD-OF strains were sorted into pure CD34^+ and CD34^− subsets. Subsets were then cultured for 48 h, the final 6 h in the absence or presence of bTSH. Data were expressed as mean f SD of triplicate independent determinations from a single experiment representative of three conducted. *, p<0.05; **, p<0.01
# IL-12, IL-23, IL-10, HA and BAFF ELISAs. Confluent cultures were treated with nothing or teprotumumab (50 μg/mL) for 5 d, without or with bTSH (5 mU/mL) for the intervals indicated or 72 h. […]
# [1] = fibrocytes from GD patients (n=28), 50 μg/mL, 9 d
# [2] = teprotumumab 50 μg/mL, time-dependent over 9 d treatment
substance,measurement,setting,value
teprotumumab,"effect on MHC II, CD80, CD86, PD-L1 expression, teprotumumab compared with TSHR inhibitor ML224","CD34+ fibrocytes; 9 d, single agents and in combination",effective
same,"surface proteins MHC II, CD80, CD86, PD-L1 at 9 days",CD34+ fibrocytes; 9 days,uniformly reduced to levels of detectability or below
same,"induction of MHC II, CD80, CD86, PD-L1 surface proteins",CD34+ fibrocytes; bTSH-treated fibrocytes,blocked
same,frequency of CD34+ fibrocytes,CD34+ fibrocytes; cultures from GD patients and healthy controls,unaffected
same,reduction in level of CD80 cell-surface protein,CD34+ fibrocytes; [1],52%
same,reduction in level of CD86 cell-surface protein,CD34+ fibrocytes; [1],49%
same,reduction in level of MHC II cell-surface protein,CD34+ fibrocytes; [1],57%
same,reduction in level of PD-L1 cell-surface protein,CD34+ fibrocytes; [1],47%
same,"induction of MHC II, CD80, CD86, PD-L1 mRNA by bTSH and M22","CD34+ fibrocytes; teprotumumab 50 μg/mL, 1H7 5 μg/mL, linsitinib 1 μM",blocked
same,"protein levels of MHC II, CD80, CD86, PD-L1",CD34+ fibrocytes; [2],substantially reduced
same,"steady-state mRNA levels of MHC II, CD80, CD86, PD-L1",CD34+ fibrocytes; [2],substantially reduced
same,bTSH induction of BAFF,fibrocytes and GD-OF,attenuated
